Experiments:
[1] = test system: Fas-FADD interaction; assay: Fas-FADD interaction in serum-deprived neuron-rich cultures (immunoprecipitation, Western blot); assay type: cell-based, mouse; conditions: deprived of serum for 8 hr
Description: (B) Neuron-rich cortical cell cultures (DIV 7) were deprived of serum, alone or with addition of 100 μM zVADfmk, 1 μM 2-hydroxy TTBA, or 5 mM Li^+. Neuronal death was analyzed 24 hr later by counting viable neurons excluding trypan (mean±SEM, n=4). *, Significant difference from the relevant control (serum deprivation alone), p<0.05 using ANOVA and Student-Neuman-Keuls test. (C) Western blot analysis of FADD antibody following immunoprecipitation with Fas antibody in the same samples above.
Additional experiments were performed to examine if targeting both neuronal cell necrosis and apoptosis would result in synergic neuroprotection in […] transgenic mice. […] Neuronal cell apoptosis was induced by serum deprivation in neuron-rich cortical cell cultures as reported, which was prevented by addition of 5 mM Li^+ as well as zVADfmk, a broad spectrum inhibitor of caspases (FIG. 5B). […] Additional experiments were performed to examine if Li^+ would prevent Fas signaling pathway. […] This implies that 2-Hydroxy-TTBA and Li^+ blocks oxidative neuronal cell necrosis and apoptosis, respectively.

[2] = test system: beta-amyloid (Aβ42); assay: suppression of beta-amyloid (Aβ42) production in CHO cells (ELISA); assay type: cell-based, Chinese hamster; conditions: Cricetulus griseus; CHO cells stably transfected with human wild APP695 and PS1ΔExon9; culture medium, ELISA; read-out: Aβ42 lowering effect (IC50)
Description: The suppressing effects of many drug candidates on production of beta-amyloid were evaluated in CHO cell line having the increased level of beta-amyloid. Results were shown as IC50 (uM) (Item C of Table 3 below).
In the Table 3, A, B and C mean neuron protecting effect against Fe^+2, suppressing effect on production of NO and suppressing effect on production of beta-amyloid, respectively. The term “ND” means “Not determined.”
Cells were treated with increasing concentrations of various chemicals in Chinese hamster ovary (CHO) cells stably transfected with human wild APP695 and the PS1ΔExon9, and analyzed Aβ42 levels in culture medium by colorimetric sandwich ELISA kit (BIOSOURCE, Camarillo, Calif.). In CHO cells, IC50 of Chemical—01-08 on Aβ42 lowering effect was 20-100 uM (Table 4).

[3] = test system: IL-1β; assay: LPS-induced IL-1β production in BV2 cells; assay type: cell-based
Description: (§1) Suppressing effects of chemical 01 in BV2 cell lines on production of IL-1β, IL-6 or TNF-α were evaluated. BV2 cells were exposed to 1 ug/ml LPS (inflammation-inducing material) with inclusion of chemical 01 at indicated doses. After 4 hours, supernatant were collected and concentrations of TNF-a were evaluated. In addition, BV2 cells were treated by the same method, and 24 hours later, supernatant were collected and concentrations of IL-1β and IL-6 were evaluated (mean±SEM, n=3). BV2 cells treated with LPS only were used as control.

[4] = test system: IL-6; assay: LPS-induced IL-6 production in BV2 cells; assay type: cell-based
Description: as §1

[5] = test system: TNF-α; assay: LPS-induced TNF-α production in BV2 cells; assay type: cell-based; conditions: 100 uM; 1 ug/ml LPS, 4 hours
Description: as §1

[6] = test system: Tg2576 transgenic mice; assay: elevated plus maze in Tg2576 transgenic mice; assay type: in vivo, mouse; conditions: 25 mg/kg/day for 5 months (9~14 months)
Description: 14 month-old Tg2576 transgenic mice were fed chow alone, or containing 25 mg/kg/day of chemical 01, for 5 months (9˜14 months). After administration of 5 months, Elevated plus maze test was performed to evaluate the behavior improvement. Elevated plus maze has two open arms (30 cm×6 cm×0.5 cm) and two closed arms (30 cm×6 cm×15 cm), and also has 6 cm×6 cm of center platform. In Elevated plus maze test, mouse was carefully laid in the center with the head of the mouse toward open arm. The time that the mouse spent in the open arm was recorded for 5 minutes (mean±SEM, n=2).
14 month-old Tg2576 transgenic mice were fed chow alone (saline only), or containing 25 mg/kg/day of chemical—01, for 5 months (9˜14 month).
The anxiety function was analyzed by elevated plus maze test. The time spent in the open arm was recorded in the elevated plus maze.

[7] = test system: APPswe/PS1deltaE9 double transgenic mice; assay: brain Aβ40/Aβ42 levels in APPswe/PS1deltaE9 double transgenic mice (ELISA); assay type: in vivo, mouse
Description: SDS-soluble/insoluble Aβ40 or Aβ42 levels were analyzed by colorimetric sandwich ELISA kit (BIOSOURCE, Camarillo, Calif.).

[8] = test system: APPswe/PS1deltaE9 double transgenic mice; assay: Morris water maze in APPswe/PS1deltaE9 double transgenic mice; assay type: in vivo, mouse; conditions: 25 mg/kg/day chemical 01 or 62.5 mg/kg/day ibuprofen for 14.5 months (3~17.5 months)
Description: After administration of 14.5 months, the cognitive function was analyzed by Morris water maze test like example 10-3-1 (mean±SEM, n=3-5).
17.5 month-old APPswe/PS1deltaE9 double transgenic mice were fed chow alone (saline only), or containing 25 mg/kg/day of chemical—01, for […] (3˜17.5 month).
The cognitive function was analyzed by Morris water maze test. Mice ware trained to perform a hidden platform task in the Morris water maze. The latency to find the platform was recorded for each mouse.

[9] = test system: G93A mouse; assay: motor performance, onset and survival in G93A mouse (chemical 01); assay type: in vivo
Description: G93A (Glycine Alanine) mouse having similar pathophysiological characteristics with ALS human patient was used to evaluate therapeutic effect of drug in ALS (amyotrophic lateral sclerosis), one of main degenerative brain diseases. It was analyzed whether treatment with 5 mg/kg/day or 20 mg/kg/day of chemical 01 improved motor performance ability or not.
In PaGE test and Rotarod test, onset and mortality were analyzed for four mice per each group (FIGS. 13C-D). […] In survival ability, G93A mouse fed with chow only, G93A mouse treated with 5 mg/kg/day of chemical 01 and G93A mouse treated with 20 mg/kg/day of chemical 01 survived for 131.57 days, 153.13 days, and 150.73 days, respectively. Treatment with chemical 01 extended survival rate of G93A mouse (FIG. 13D).

[10] = test system: C57/BL6 mice; assay: microglia activation in MPTP mouse model of Parkinson's disease (CD11b); assay type: in vivo; conditions: 50 mg/kg intraperitoneal, MPTP 40 mg/kg s.c., two days
Description: MPTP (40 mg/kg) was subcutaneously injected into C57/BL6 mice (male/8 week-old). Some of the mice were administered with 50 mg/kg of chemical 01 through intraperitoneal injection 30 minutes before the injection of MPTP everyday. Two days later, brain tissue was extracted and immunostained with CD11b. After reaction, DAB (diaminobenzidine) was used for chromograph, and then the activation degree of microglia (a marker of inflammation in brain disease model) was evaluated with optical microscope (FIG. 14E).

Row | Structure (SMILES) | Fas-FADD interaction, effect in words [1] | IC50 [2] [µM] | decrease of IL-1β released into media ([3]; 100 uM, 1 ug/ml LPS, 24 hours) | IL-1β decrease, in words ([3]; 1~100 uM) | decrease of IL-6 released into media ([4]; 100 uM, 1 ug/ml LPS, 24 hours) [%] | IL-6 decrease, in words ([4]; 1~100 uM) | decrease of TNF-α released into media [5] [%] | time spent in the open arm [6] | time spent in the open arm ([6]; listed as chemical—01) | SDS-soluble/insoluble Aβ40 or Aβ42 levels, in words ([7]; 25 mg/kg/d chemical 01 or 62.5 mg/kg/day ibuprofen for 14.5 months) | reduction in SDS-insoluble Aβ40 levels ([7]; 25 mg/kg/day for 4 months (from 8.5 to 12.5 month-old)) [%] | reduction in SDS-insoluble Aβ40 levels ([7]; 25 mg/kg/day for 7 months (from 3.5 to 10.5 months)) [%] | escape latency / cognitive function (Morris water maze) [8] | survival ([9]; 5 mg/kg/day) [days] | onset ([9]; 5 mg/kg/day or 20 mg/kg/day) [days] | survival ([9]; 20 mg/kg/day) [days] | motor performance versus control fed with general chow only (Rotarod, PaGE) ([9]; 5 or 20 mg/kg/day in chow, from 14 weeks to 17 weeks) | activity of microglia caused by MPTP [10]
1 | O=C(O)c1cc(NCc2c(F)c(F)c(C(F)(F)F)c(F)c2F)ccc1O [2-Hydroxy-TTBA, 2-hydroxy-5-(2,3,5,6-tetrafluoro-4-trifluoromethyl-benzylamino)-benzoic acid] | not |  |  |  |  |  |  |  |  |  |  |  |  |  |  |  |  | 
2 | O=C(O)c1cc(NCCc2ccc(C(F)(F)F)cc2)ccc1O [chemical 01, 2-Hydroxy-5-[2-(4-trifluoromethyl-phenyl)-ethylamino]-benzoic acid] |  | 19.6 | about 80% | dose-dependent manner | ~70 | dose-dependent manner | ~70 | decreased the time | spent less time | reduced | 27 | 42 | shorter | 153.13 | 125.67 | 150.73 | better motor performance | decreased

From patent publication US20120301551A1, “COMPOUNDS AND COMPOSITIONS FOR TREATING NEURONAL DEATH OR NEUROLOGICAL DYSFUNCTION” (Neurotech Pharmaceuticals Co., Ltd., priority 2005, published 2012)
